The values below come from patent US20210277020A1, “HETEROCYCLIC COMPOUNDS AS MONOACYLGLYCEROL LIPASE INHIBITORS” (Hoffmann-La Roche Inc., priority 2018, published 2021).

Structures are written as SMILES.

The target in this assay is T1, MAGL (recombinant wild-type) (Homo sapiens, UniProt Q99685).
T1 sequence (Q99685 1-303): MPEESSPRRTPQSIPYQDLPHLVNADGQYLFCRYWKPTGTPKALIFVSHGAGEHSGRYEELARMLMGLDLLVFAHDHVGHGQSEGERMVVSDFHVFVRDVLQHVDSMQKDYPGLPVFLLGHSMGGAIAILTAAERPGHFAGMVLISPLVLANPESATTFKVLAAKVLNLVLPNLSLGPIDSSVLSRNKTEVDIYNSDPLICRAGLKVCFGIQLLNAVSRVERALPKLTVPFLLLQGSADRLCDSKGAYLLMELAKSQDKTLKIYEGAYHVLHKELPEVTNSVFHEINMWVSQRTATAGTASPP
The assay can be described thus: 4-NPA assay: MAGL inhibition followed by hydrolysis of 4-nitrophenylacetate, absorbance at 405 nm. It counts as biochemical. The conditions noted are these: measured in 4-NPA assay (footnote [b]); 1 nM MAGL, 300 μM 4-nitrophenylacetate. On the procedure: Compounds were profiled for MAGL inhibitory activity by measuring the enzymatic activity of MAGL by following the hydrolysis of 4-nitrophenylacetate resulting in 4-nitrophenol, which absorbs at 405-412 nm (G. G. Muccioli, G. Labar, D. M. Lambert, Chem. Bio. Chem. 2008, 9, 2704-2710). This assay is hereinafter abbreviated “4-NPA assay”.
The 4-NPA assay was carried out in 384 well assay plates (black with clear bottom, non-binding surface treated, Corning Ref. 3655) in a total volume of 40 μL. Compound dilutions were made in 100% DMSO (VWR Chemicals 23500.297) in a polypropylene plate in 3-fold dilution steps to give a final concentration range in the assay from 25 μM to 1.7 nM. 1 μL compound dilutions (100% DMSO) were added to 19 μL MAGL (recombinant wild-type) in assay buffer (50 mM TRIS (GIBCO, 15567-027), 1 mM EDTA (Fluka, 03690-100 mL)). The plate was shaked for 1 min at 2000 rpm (Variomag Teleshake) and then incubated for 15 min at RT. To start the reaction, 20 μL 4-Nitrophenlyacetate (Sigma N-8130) in assay buffer with 6% EtOH was added. The final concentrations in the assay were 1 nM MAGL and 300 μM 4-Nitrophenylacetate. After shaking (1 min, 2000 rpm) and 5 min incubation at RT, the absorbance at 405 nm was measured for a fist time (Molecular Devices, SpectraMax Paradigm). A second measurement was then done after incubation for 80 min at RT. From the two measurements, the slope was calculated by subtracting the first from the second measurement.
Take `O=C1CO[C@H]2CCN(C(=O)N3CCC(C(=O)NCc4ccccc4)CC3)C[C@H]2N1` [Example 65, N-Benzyl-1-((4aR,8aS)-3-oxooctahydro-2H-pyrido[4,3-b][1,4]oxazine-6-carbonyl)piperidine-4-carboxamide]: the concentration for half-maximal inhibition (IC50) turned out to be 2.9 µM.

Consider `O=C1CO[C@H]2CCN(C(=O)N3CCC(C(=O)N(CCO)Cc4ccccc4)CC3)C[C@H]2N1` [Example 63, N-Benzyl-N-(2-hydroxyethyl)-1-((4aR,8aS)-3-oxooctahydro-2H-pyrido[4,3-b][1,4]oxazine-6-carbonyl)piperidine-4-carboxamide], for which the concentration for half-maximal inhibition (IC50) worked out at 4.4 µM.

Take `CN(C(=O)Cc1cccc(C(F)(F)F)c1)C1CCN(C(=O)N2CC[C@@H]3OCC(=O)N[C@@H]3C2)CC1` [Example 86, N-[1-[(4aR,8aS)-3-oxo-4,4a,5,7,8,8a-hexahydropyrido[4,3-b][1,4]oxazine-6-carbonyl]piperidin-4-yl]-N-methyl-2-[3-(trifluoromethyl)phenyl]acetamide]: the 50% inhibitory concentration (IC50) was determined as 0.519 µM.

For the compound `CN(C(=O)c1ccc(C(F)(F)F)cc1)C1CCN(C(=O)N2CC[C@@H]3OCC(=O)N[C@@H]3C2)CC1` [Example 85, N-[1-[(4aR,8aS)-3-oxo-4,4a,5,7,8,8a-hexahydropyrido[4,3-b][1,4]oxazine-6-carbonyl]piperidin-4-yl]-N-methyl-4-(trifluoromethyl)benzamide], the 50% inhibitory concentration (IC50) was determined as 1.99 µM.

The IC50 is the midpoint of a concentration-inhibition curve.
